Measurements from patent US6525001B1, “Substituted pyrimidine and pyridine herbicides” (Mid-American Commercialization Corporation, priority 1997, dated 2003).

Tests used:
Format in all cases: in vivo
[1] = tested on: broadleaf signalgrass (Brachiaria decumbens); assay: Test B pre-/postemergence; design: key: 0 is no effect; 10 is complete control; settings: Preemergence
How it was run: (§1)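 Compounds in a surfactant-containing, non-phytotoxic solvent blend are applied to freshly planted seed (preemergence) and, concurrently, to seedlings of 2 to 18 cm at 1–4 leaves (postemergence). Plants stay in the greenhouse twelve to sixteen days and are then scored visually from 0 (no effect) to 10 (complete control).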

[2] = tested on: giant foxtail (Setaria faberii); assay: Test B pre-/postemergence; design: key: 0 is no effect; 10 is complete control
How it was run: as §1

[3] = tested on: wild oat (Avena fatua); assay: Test B pre-/postemergence; design: key: 0 is no effect; 10 is complete control
How it was run: as §1

[4] = tested on: bedstraw (Galium aparine); assay: Test B pre-/postemergence; design: key: 0 is no effect; 10 is complete control
How it was run: as §1

[5] = tested on: momingglory (Ipomoea hederacea); assay: Test B pre-/postemergence; design: key: 0 is no effect; 10 is complete control
How it was run: as §1

[6] = tested on: barnyardgrass (Echinochloa crus-galli); assay: Test A pre-/postemergence; settings: 0 to 10 scale
Protocol: (§2) Seeds of barnyardgrass (Echinochloa crus-galli), crabgrass (Digitaria spp.), morningglory (Ipomoea spp.), and velvetleaf (Abutilon theophrasti) were planted into a sandy loam soil and treated preemergence by soil drench with test chemicals formulated in a non-phytotoxic solvent mixture which includes a surfactant. At the same time, these crop and weed species were also treated postemergence sprayed to runoff, with test chemicals formulated in the same manner. Plants ranged in height from two to eighteen cm and were in the one to two leaf stage for the postemergence treatment. Treated plants and untreated controls were maintained in a greenhouse for approximately eleven days, after which all treated plants were compared to untreated controls and visually evaluated for injury. Plant response ratings, summarized in Table A, are based on a 0 to 10 scale where 0 is no effect and 10 is complete control. A dash (−) response means no test results.

[7] = tested on: morningglory (Ipomoea spp.); assay: Test A pre-/postemergence; settings: 0 to 10 scale
Protocol: as §2

[8] = tested on: velvetleaf (Abutilon theophrasti); assay: Test A pre-/postemergence; settings: 0 to 10 scale
Protocol: as §2

[9] = tested on: crabgrass (Digitaria spp.); assay: Test A pre-/postemergence; settings: 0 to 10 scale
Protocol: as §2

[10] = PRE SOIL DRENCH, Rate 2000 g/ha
[11] = postemergence SPRAYED TO RUNOFF, Rate 1000 g/ha

SMILES: Cc1cnc(-c2ccc(Cl)cc2)nc1Cn1ccc(C(F)(F)F)n1 [Compound 6]
- B. signalgrass plant response rating ([1]; Rate 62 g/ha): 1
- B. signalgrass plant response rating ([1]; Rate 125 g/ha): 4
- Plant response rating, B. signalgrass ([1]; Rate 250 g/ha): 9
- Plant response rating, B. signalgrass ([1]; Rate 500 g/ha): 9
- Giant foxtail plant response rating ([2]; Rate 62 g/ha, Preemergence): 2
- Plant response rating, Giant foxtail ([2]; Rate 125 g/ha, Postemergence): 4
- Giant foxtail plant response rating ([2]; Rate 125 g/ha, Preemergence): 6
- Plant response rating, Giant foxtail ([2]; Rate 250 g/ha, Postemergence): 5
- Plant response rating, Giant foxtail ([2]; Rate 250 g/ha, Preemergence): 9
- Plant response rating, Giant foxtail ([2]; Rate 500 g/ha, Postemergence): 6
- Plant response rating, Giant foxtail ([2]; Rate 500 g/ha, Preemergence): 10
- Plant response rating, Wild oats ([3]; Rate 62 g/ha, Postemergence): 0
- Wild oats plant response rating ([3]; Rate 62 g/ha, Preemergence): 0
- Plant response rating, Wild oats ([3]; Rate 125 g/ha, Postemergence): 3
- Wild oats plant response rating ([3]; Rate 125 g/ha, Preemergence): 0
- Plant response rating, Wild oats ([3]; Rate 250 g/ha, Postemergence): 3
- Plant response rating, Wild oats ([3]; Rate 250 g/ha, Preemergence): 2
- Plant response rating, Wild oats ([3]; Rate 500 g/ha, Postemergence): 3
- Plant response rating, Wild oats ([3]; Rate 500 g/ha, Preemergence): 3
- Plant response rating, Bedstraw ([4]; Rate 62 g/ha, Postemergence): 5
- Bedstraw plant response rating ([4]; Rate 62 g/ha, Preemergence): 0
- Plant response rating, Bedstraw ([4]; Rate 125 g/ha, Postemergence): 7
- Bedstraw plant response rating ([4]; Rate 125 g/ha, Preemergence): 0
- Plant response rating, Bedstraw ([4]; Rate 250 g/ha, Postemergence): 7
- Plant response rating, Bedstraw ([4]; Rate 250 g/ha, Preemergence): 0
- Plant response rating, Bedstraw ([4]; Rate 500 g/ha, Postemergence): 8
- Plant response rating, Bedstraw ([4]; Rate 500 g/ha, Preemergence): 5
- Plant response rating, Morningglory ([5]; Rate 62 g/ha, Postemergence): 3
- Morningglory plant response rating ([5]; Rate 62 g/ha, Preemergence): 1
- Plant response rating, Morningglory ([5]; Rate 125 g/ha, Postemergence): 8
- Morningglory plant response rating ([5]; Rate 125 g/ha, Preemergence): 1
- Plant response rating, Morningglory ([5]; Rate 250 g/ha, Postemergence): 8
- Plant response rating, Morningglory ([5]; Rate 250 g/ha, Preemergence): 2
- Plant response rating, Morningglory ([5]; Rate 500 g/ha, Postemergence): 8
- Plant response rating, Morningglory ([5]; Rate 500 g/ha, Preemergence): 2
- Plant response rating, Barnyardgrass [6, 10]: 8
- Plant response rating, Barnyardgrass [6, 11]: 8
- Plant response rating, Morningglory [7, 10]: 5
- Plant response rating, Morningglory [7, 11]: 6
- Plant response rating, Velvetleaf [8, 10]: 8
- Plant response rating, Velvetleaf [8, 11]: 9
- Plant response rating, Crabgrass [9, 10]: 9
- Plant response rating, Crabgrass [9, 11]: 9
